From US11773379B2, “Enzymes and reagents for measurement of short chain fatty acids” (SYSMEX CORPORATION, priority 2018, dated 2023)

Assays:
[1] = system: propionic acid kinase (PK); assay: Comparative Example 1: measurement using propionic acid kinase, reaction recovery rate; assay type: biochemical; details: 5 mM substrate
Protocol: (§1) It was examined whether butyric acid could be measured by using acetate kinase (AK) or propionic acid kinase (PK) instead of butyrate kinase. For comparison, measurement using BKIII was also performed.
(§2) Neutralized 100 mM acetic acid, butyric acid, and isobutyric acid were mixed with physiological saline to prepare a 5 mM acetic acid aqueous solution, a 5 mM butyric acid aqueous solution, and a 5 mM isobutyric acid aqueous solution, respectively.
(§3) The composition of the first reagent was the same as that of the first reagent used for examining the substrate specificity of Reference Example 7.
(§4) AK (Sigma-Aldrich Co. LLC., derived from E. coli), PK (MyBioSource, recombinant protein) and BKIII were added to 100 mM Tris-HCl (pH 7.5) (Sigma-Aldrich Co. LLC.), respectively, to prepare an enzyme solution containing each enzyme at a concentration of 1.25 to 40 U/mL.
(§5) The measurement was performed using a 7180 type Hitachi automatic analyzer (Hitachi High-Tech Corporation). The measurement parameters of the automatic analyzer were the same as in Example 2.
(§6) In the same manner as in Example 2, butyric acid and isobutyric acid in the sample were measured by the automatic analyzer. The reaction recovery rate (%) was calculated by dividing the measured value by the theoretical absorbance value. The theoretical absorbance is the absorbance when all the substrate (butyric acid or isobutyric acid) in the sample is converted to NADPH, and is calculated by the following formula. […] (Theoretical absorbance)= (substrate concentration in sample)×[(sample volume)/(sample volume+ first reagent amount+second reagent amount)]×(NADPH millimole molecular extinction coefficient at 340 nm)= 5×[3.5/(3.5+140+35)]×6.3= 0.617

[2] = system: butyrate-acetoacetate-CoA transferase (EC 2.8.3.9); assay: Comparative Example 3: measurement using butyrate-acetoacetate-CoA transferase, reaction recovery rate; assay type: biochemical, E. coli; details: 60 μg/mL butyrate-acetoacetate-CoA transferase in second reagent; 5 mM substrate
Protocol: It was examined whether acetic acid and butyric acid could be measured by the reaction of formula (12), which is the reverse reaction of the formula (11), using butyrate-[…] transferase instead of butyrate kinase. […] The measurement was performed using a 7180 type Hitachi automatic analyzer (Hitachi High-Tech Corporation). […] LLC.) • 0.35 mM Acetoacetyl-CoA (Sigma-Aldrich Co. LLC.) • 2 mM MgCl2 (FUJIFILM Wako Pure Chemical Corporation) • 0.25 mM β-NADH (Oriental Yeast Co., Ltd.) • 5 U/mL 3-hydroxybutyrate dehydrogenase (FUJIFILM Wako Pure Chemical Corporation) […] LLC.) The measurement was performed using a 7180 type Hitachi automatic analyzer (Hitachi High-Tech Corporation). The measurement parameters of the automatic analyzer were the same as in Example 2.

acetate kinase (AK) = biological target: T1, acetate kinase (AK) (Escherichia coli, UniProt P0A6A3); assay: Comparative Example 1: measurement using acetate kinase, reaction recovery rate; assay type: biochemical, E. coli; details: 5 mM substrate
T1 construct: purchased Sigma-Aldrich Co. LLC
T1 sequence (P0A6A3 whole entry): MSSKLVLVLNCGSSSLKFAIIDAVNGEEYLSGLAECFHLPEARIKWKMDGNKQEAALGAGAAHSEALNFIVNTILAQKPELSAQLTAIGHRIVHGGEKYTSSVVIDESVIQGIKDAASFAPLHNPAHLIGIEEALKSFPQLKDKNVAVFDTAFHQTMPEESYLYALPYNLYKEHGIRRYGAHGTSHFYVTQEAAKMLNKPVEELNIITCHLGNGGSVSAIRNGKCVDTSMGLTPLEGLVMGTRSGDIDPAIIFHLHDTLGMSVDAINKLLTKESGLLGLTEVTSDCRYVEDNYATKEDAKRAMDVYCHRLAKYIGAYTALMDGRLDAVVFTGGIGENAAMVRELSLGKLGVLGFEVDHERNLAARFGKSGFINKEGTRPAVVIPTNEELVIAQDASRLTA
Protocol: as §1, §2, §3, §4, §5, §6

[3] = system: BKII (recombinant butyrate kinase derived from Acetoanaerobium sticklandii); assay: Substrate specificity of butyrate kinase BKII; assay type: biochemical; details: 100 mM sodium salt of fatty acid in second reagent, pH 7.5
Protocol: (§7) Various fatty acids shown in Table 1 were used as a substrate. The measurement was performed using a 7180 type Hitachi automatic analyzer (Hitachi High-Tech Corporation). […] PHARMA CORPORATION) • 5 U/mL ADP-HK II (ADP dependent hexokinase: […] PHARMA CORPORATION) […] In the composition of the second reagent, “sodium salts of various fatty acids” means any one kind of sodium caprylate, sodium caproate, sodium valerate, sodium isovalerate, sodium butyrate, sodium isobutyrate, sodium propionate, sodium acetate, sodium lactate, and sodium succinate. Isobutyric acid, valeric acid, isovaleric acid, caproic acid, and octanoic acid, which are commercially available fatty acids and are not sold as sodium salts, were adjusted to pH 7.5 with sodium hydroxide. […] [Measurement Parameters of Automatic Analyzer] • Analysis method: […]

BKIII = assay: Comparative Example 1: measurement using BKIII, reaction recovery rate; assay type: biochemical, Thermosediminibacter oceani; details: 5 mM substrate
Protocol: as §1, §2, §3, §4, §5, §6

[4] = system: BKIII (recombinant butyrate kinase derived from Thermosediminibacter oceani); assay: Substrate specificity of butyrate kinase BKIII; assay type: biochemical; details: 100 mM sodium salt of fatty acid in second reagent, pH 7.5
Protocol: as §7

[5] = system: acetate-CoA transferase (EC 2.8.3.8); assay: Comparative Example 2: measurement using acetate-CoA transferase, reaction recovery rate; assay type: biochemical, E. coli; details: 30 μg/mL acetate-CoA transferase in second reagent; 5 mM substrate
From the text: Acetate-CoA transferase (EC 2.8.3.8) has been reported to catalyze the reaction represented by the following formula (9) (EC 2.8.3.8 in the Enzyme nomenclature database on the ExPASy-SIB Bioinformatics Resource Portal).). It was examined whether butyric acid could be measured by the reaction of formula (10), which is the reverse reaction of formula (9), using acetate-CoA transferase instead of butyrate kinase The acetic acid produced by the formula (10) by acetate-CoA transferase was confirmed by the reaction with AK of Comparative Example 1. The measurement was performed using a 7180 type Hitachi automatic analyzer (Hitachi High-Tech Corporation). [Chemical formula 7] Acyl-CoA+acetic acid ? fatty acid+acetyl-CoA (9) Butyric acid+acetyl-CoA→butyrate-CoA+acetic acid (10)
The 5 mM butyric acid and 5 mM isobutyric acid aqueous solution used in Comparative Example 1 were used. […]
In the same manner as in Example 2, butyric acid and isobutyric acid in the sample were measured by the automatic analyzer. The reaction recovery rate (%) was calculated by dividing the measured value by the theoretical absorbance value of Comparative Example 1.

[6] = PK activity value in reaction mixed solution 0.3 U/mL
[7] = PK activity value in reaction mixed solution 0.5 U/mL
[8] = PK activity value in reaction mixed solution 1.0 U/mL
[9] = PK activity value in reaction mixed solution 2.0 U/mL
[10] = PK activity value in reaction mixed solution 4.0 U/mL
[11] = PK activity value in reaction mixed solution 8.0 U/mL
[12] = AK activity value in reaction mixed solution 0.3 U/mL
[13] = AK activity value in reaction mixed solution 0.5 U/mL
[14] = AK activity value in reaction mixed solution 1.0 U/mL
[15] = AK activity value in reaction mixed solution 2.0 U/mL
[16] = AK activity value in reaction mixed solution 4.0 U/mL
[17] = AK activity value in reaction mixed solution 8.0 U/mL
[18] = BKIII activity value in reaction mixed solution 0.3 U/mL
[19] = BKIII activity value in reaction mixed solution 0.5 U/mL
[20] = BKIII activity value in reaction mixed solution 1.0 U/mL
[21] = BKIII activity value in reaction mixed solution 2.0 U/mL
[22] = BKIII activity value in reaction mixed solution 4.0 U/mL
[23] = BKIII activity value in reaction mixed solution 8.0 U/mL

For `CC(=O)O` [Acetic acid], the reaction recovery rate [1, 6] was 0%, the reaction recovery rate [1, 7] was 2% and the reaction recovery rate [1, 8] was 3%. It also gave a reaction recovery rate [1, 9] of 9%, a reaction recovery rate [1, 10] of 21% and a reaction recovery rate [1, 11] of 39%. For the same molecule, the “Reaction recovery rate (%)” value [2] was 1%, the reaction recovery rate (acetate kinase (AK); [12]) was 16% and the reaction recovery rate (acetate kinase (AK); [13]) was 28%. The reaction recovery rate (acetate kinase (AK); [14]) was 44%, the reaction recovery rate (acetate kinase (AK); [15]) was 62% and the reaction recovery rate (acetate kinase (AK); [16]) was 78%. The reaction recovery rate (acetate kinase (AK); [17]) was 88%, the “substrate specificity, relative value when the activity value with respect to butyric acid is 100” value (shortened to “substrate specificity, relative value”) [3] was 1% and the reaction recovery rate (BKIII; [18]) was 0%. For the same molecule, the reaction recovery rate (BKIII; [19]) was 0%, the reaction recovery rate (BKIII; [20]) was 0% and the reaction recovery rate (BKIII; [21]) was 0%. For the same molecule, the reaction recovery rate (BKIII; [22]) was 1%, the reaction recovery rate (BKIII; [23]) was 2% and the “substrate specificity, relative value” value [4] was 1%.
In the case of `CCCC(=O)O` [Butyric acid], the reaction recovery rate [1, 6] is reported as 0%, the reaction recovery rate [1, 7] is reported as 0% and the reaction recovery rate [1, 8] is reported as 0%. For the same molecule, the reaction recovery rate [1, 9] was 2%, the reaction recovery rate [1, 10] was 4% and the reaction recovery rate [1, 11] was 8%. For the same molecule, the “Reaction recovery rate (%)” value [5] was 3%, the “Reaction recovery rate (%)” value [2] was 2% and the reaction recovery rate (acetate kinase (AK); [12]) was 0%. For the same molecule, the reaction recovery rate (acetate kinase (AK); [13]) was 0%, the reaction recovery rate (acetate kinase (AK); [14]) was 0% and the reaction recovery rate (acetate kinase (AK); [15]) was 0%. The reaction recovery rate (acetate kinase (AK); [16]) was 0%, the reaction recovery rate (acetate kinase (AK); [17]) was 0% and the “substrate specificity, relative value” value [3] was 100%. The reaction recovery rate (BKIII; [18]) was 36%, the reaction recovery rate (BKIII; [19]) was 53% and the reaction recovery rate (BKIII; [20]) was 70%. The reaction recovery rate (BKIII; [21]) was 84%, the reaction recovery rate (BKIII; [22]) was 93% and the reaction recovery rate (BKIII; [23]) was 98%. The “substrate specificity, relative value” value [4] was 100%.
`CC(C)C(=O)O` [Isobutyric acid] was tested, and the reaction recovery rate [1, 6] was 0%, the reaction recovery rate [1, 7] was 0% and the reaction recovery rate [1, 8] was 0%. For the same molecule, the reaction recovery rate [1, 9] was 0%, the reaction recovery rate [1, 10] was 0% and the reaction recovery rate [1, 11] was 0%. The “Reaction recovery rate (%)” value [5] was 4%, the “Reaction recovery rate (%)” value [2] was 2% and the reaction recovery rate (acetate kinase (AK); [12]) was 0%. The reaction recovery rate (acetate kinase (AK); [13]) was 0%, the reaction recovery rate (acetate kinase (AK); [14]) was 0% and the reaction recovery rate (acetate kinase (AK); [15]) was 0%. The reaction recovery rate (acetate kinase (AK); [16]) was 0%, the reaction recovery rate (acetate kinase (AK); [17]) was 0% and the “substrate specificity, relative value” value [3] was 84%. The reaction recovery rate (BKIII; [18]) was 40%, the reaction recovery rate (BKIII; [19]) was 55% and the reaction recovery rate (BKIII; [20]) was 70%. The reaction recovery rate (BKIII; [21]) was 83%, the reaction recovery rate (BKIII; [22]) was 91% and the reaction recovery rate (BKIII; [23]) was 96%. For the same molecule, the “substrate specificity, relative value” value [4] was 80%.
